ChEMBL document CHEMBL5291721, “A preclinical secondary pharmacology resource illuminates target-adverse drug reaction associations of marketed drugs” (Nat Commun, 2023)

How the values were obtained:
Progesterone receptor = target: T1, Progesterone receptor (Homo sapiens, UniProt P06401)
T1 sequence (P06401 whole entry): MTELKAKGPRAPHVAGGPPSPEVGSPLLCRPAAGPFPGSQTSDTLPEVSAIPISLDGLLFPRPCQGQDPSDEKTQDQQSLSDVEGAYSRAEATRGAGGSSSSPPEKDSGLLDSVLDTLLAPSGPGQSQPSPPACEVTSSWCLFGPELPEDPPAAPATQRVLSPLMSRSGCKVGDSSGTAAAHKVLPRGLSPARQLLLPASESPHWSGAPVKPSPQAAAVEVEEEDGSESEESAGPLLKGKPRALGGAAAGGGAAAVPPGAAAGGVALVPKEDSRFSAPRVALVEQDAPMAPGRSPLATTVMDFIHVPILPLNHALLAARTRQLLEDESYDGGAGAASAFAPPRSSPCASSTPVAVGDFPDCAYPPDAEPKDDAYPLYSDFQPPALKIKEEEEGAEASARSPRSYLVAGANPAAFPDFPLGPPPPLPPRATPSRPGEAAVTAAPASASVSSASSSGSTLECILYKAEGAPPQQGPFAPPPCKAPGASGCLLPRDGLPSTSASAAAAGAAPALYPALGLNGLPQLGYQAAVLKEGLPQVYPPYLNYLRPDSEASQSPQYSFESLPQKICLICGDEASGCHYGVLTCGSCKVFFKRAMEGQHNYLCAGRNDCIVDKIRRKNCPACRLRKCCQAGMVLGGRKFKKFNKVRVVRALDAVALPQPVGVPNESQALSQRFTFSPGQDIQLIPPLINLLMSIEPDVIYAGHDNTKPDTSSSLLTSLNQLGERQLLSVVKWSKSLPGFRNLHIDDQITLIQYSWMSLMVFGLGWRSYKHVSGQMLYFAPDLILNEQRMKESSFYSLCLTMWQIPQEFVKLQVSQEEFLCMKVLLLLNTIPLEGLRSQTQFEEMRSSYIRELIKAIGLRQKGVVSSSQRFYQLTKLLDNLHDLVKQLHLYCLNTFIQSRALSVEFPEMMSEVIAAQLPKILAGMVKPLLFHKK

[1] = target: Sodium channel protein type 5 subunit alpha (Homo sapiens, UniProt Q14524); format: functional, cell-based
Sequence of Sodium channel protein type 5 subunit alpha (Q14524 whole entry): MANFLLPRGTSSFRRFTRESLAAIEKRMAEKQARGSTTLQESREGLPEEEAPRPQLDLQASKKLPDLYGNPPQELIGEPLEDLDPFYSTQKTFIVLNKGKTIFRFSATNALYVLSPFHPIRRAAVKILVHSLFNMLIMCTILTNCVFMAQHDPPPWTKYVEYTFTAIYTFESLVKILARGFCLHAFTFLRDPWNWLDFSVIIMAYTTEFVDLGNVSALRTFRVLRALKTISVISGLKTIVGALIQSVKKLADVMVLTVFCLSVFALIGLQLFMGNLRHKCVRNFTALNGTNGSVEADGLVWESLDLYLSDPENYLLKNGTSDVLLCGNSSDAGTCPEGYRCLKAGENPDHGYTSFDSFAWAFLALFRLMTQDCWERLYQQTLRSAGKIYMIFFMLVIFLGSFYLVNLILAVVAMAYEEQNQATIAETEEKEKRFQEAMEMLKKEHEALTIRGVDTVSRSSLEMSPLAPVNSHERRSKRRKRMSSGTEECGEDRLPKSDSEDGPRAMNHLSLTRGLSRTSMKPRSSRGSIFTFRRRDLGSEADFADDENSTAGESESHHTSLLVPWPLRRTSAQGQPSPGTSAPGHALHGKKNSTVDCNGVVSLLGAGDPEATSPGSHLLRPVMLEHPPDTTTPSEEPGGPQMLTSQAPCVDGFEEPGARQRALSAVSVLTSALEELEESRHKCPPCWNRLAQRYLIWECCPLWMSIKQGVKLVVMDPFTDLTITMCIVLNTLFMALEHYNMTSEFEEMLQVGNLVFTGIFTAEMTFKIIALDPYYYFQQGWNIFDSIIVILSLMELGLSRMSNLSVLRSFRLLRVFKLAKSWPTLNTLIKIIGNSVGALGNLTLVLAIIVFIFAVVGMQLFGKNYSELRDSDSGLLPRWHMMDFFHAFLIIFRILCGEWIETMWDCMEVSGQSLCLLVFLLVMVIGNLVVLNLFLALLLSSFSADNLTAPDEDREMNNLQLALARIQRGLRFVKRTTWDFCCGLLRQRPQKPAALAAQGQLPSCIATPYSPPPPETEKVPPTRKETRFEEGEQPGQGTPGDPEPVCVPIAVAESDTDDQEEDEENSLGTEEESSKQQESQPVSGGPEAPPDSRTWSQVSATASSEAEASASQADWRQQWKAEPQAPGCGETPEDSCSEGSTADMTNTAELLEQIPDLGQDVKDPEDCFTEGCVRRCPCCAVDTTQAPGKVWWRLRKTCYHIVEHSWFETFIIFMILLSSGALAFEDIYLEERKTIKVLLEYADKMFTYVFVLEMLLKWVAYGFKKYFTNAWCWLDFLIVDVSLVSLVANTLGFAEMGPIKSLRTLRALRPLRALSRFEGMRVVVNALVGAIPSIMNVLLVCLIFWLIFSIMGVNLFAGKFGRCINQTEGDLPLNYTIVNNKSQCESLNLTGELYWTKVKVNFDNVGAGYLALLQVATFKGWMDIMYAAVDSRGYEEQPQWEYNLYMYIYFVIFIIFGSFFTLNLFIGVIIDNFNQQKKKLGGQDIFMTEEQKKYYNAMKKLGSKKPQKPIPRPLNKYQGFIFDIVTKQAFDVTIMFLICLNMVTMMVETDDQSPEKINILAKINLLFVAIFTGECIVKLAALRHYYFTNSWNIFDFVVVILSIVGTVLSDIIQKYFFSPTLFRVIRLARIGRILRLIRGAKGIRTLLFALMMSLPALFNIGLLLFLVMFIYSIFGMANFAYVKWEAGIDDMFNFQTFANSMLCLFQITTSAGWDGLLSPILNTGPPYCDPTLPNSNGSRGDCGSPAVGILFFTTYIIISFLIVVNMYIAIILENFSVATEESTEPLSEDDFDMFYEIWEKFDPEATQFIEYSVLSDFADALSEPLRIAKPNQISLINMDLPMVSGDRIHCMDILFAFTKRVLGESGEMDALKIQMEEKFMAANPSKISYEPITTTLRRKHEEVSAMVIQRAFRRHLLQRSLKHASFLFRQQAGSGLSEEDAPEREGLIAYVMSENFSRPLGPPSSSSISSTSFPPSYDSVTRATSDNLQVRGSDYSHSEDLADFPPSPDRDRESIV

Thromboxane A2 receptor = target: T2, Thromboxane A2 receptor (Homo sapiens, UniProt P21731); format: functional, cell-based
T2 sequence (P21731 whole entry): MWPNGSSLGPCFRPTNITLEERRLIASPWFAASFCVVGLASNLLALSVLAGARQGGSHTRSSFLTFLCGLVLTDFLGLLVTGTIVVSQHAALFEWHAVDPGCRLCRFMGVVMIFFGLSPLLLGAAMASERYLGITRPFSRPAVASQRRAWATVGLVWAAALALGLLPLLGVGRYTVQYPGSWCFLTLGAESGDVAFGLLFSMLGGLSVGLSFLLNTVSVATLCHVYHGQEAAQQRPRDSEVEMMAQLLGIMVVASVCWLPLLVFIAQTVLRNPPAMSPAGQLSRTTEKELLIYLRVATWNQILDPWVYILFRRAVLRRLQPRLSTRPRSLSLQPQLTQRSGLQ

[2] = target: T3, Muscarinic acetylcholine receptor M2 (Homo sapiens, UniProt P08172)
T3 sequence (P08172 whole entry): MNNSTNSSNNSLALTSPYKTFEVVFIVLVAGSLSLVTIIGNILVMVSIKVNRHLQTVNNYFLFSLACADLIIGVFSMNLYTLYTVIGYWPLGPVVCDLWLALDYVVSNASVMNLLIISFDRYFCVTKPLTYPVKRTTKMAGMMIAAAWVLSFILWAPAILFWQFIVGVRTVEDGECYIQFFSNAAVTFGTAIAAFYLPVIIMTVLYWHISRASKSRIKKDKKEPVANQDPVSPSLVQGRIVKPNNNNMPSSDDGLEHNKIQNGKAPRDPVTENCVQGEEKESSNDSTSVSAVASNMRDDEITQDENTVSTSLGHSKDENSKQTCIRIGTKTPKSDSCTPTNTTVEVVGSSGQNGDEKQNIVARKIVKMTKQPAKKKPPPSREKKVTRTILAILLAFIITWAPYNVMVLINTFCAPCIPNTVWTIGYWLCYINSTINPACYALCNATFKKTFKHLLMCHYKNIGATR

[3] = target: T4, Corticotropin-releasing factor receptor 2 (Homo sapiens, UniProt Q13324)
T4 sequence (Q13324 whole entry): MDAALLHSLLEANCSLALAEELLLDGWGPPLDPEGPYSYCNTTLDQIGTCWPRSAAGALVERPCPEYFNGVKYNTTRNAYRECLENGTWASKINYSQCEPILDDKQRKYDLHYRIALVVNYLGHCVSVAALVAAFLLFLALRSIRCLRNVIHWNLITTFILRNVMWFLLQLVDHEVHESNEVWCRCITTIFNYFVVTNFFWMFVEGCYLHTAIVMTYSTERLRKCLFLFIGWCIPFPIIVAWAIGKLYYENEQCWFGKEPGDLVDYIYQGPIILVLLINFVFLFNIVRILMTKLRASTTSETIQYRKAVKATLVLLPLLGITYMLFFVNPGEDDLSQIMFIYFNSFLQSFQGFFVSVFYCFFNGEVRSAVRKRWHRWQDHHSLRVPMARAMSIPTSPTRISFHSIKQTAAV

Glucagon receptor = Glucagon receptor (Homo sapiens, UniProt P47871)
Sequence of Glucagon receptor (P47871 whole entry): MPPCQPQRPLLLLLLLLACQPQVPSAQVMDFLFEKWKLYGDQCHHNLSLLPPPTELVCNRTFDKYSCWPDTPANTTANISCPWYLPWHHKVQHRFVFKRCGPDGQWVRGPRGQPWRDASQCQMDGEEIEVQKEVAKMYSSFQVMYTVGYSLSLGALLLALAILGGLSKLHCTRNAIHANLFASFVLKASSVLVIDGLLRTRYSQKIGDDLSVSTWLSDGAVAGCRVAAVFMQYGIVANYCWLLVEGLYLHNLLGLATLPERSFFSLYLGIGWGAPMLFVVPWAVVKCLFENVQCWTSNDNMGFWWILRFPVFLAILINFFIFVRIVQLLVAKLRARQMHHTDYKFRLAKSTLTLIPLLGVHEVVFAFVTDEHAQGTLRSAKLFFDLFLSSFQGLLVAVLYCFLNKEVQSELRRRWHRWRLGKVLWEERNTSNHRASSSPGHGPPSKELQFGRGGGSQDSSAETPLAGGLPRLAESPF

[4] = target: T5, Corticotropin-releasing factor receptor 1 (Homo sapiens, UniProt P34998)
T5 sequence (P34998 whole entry): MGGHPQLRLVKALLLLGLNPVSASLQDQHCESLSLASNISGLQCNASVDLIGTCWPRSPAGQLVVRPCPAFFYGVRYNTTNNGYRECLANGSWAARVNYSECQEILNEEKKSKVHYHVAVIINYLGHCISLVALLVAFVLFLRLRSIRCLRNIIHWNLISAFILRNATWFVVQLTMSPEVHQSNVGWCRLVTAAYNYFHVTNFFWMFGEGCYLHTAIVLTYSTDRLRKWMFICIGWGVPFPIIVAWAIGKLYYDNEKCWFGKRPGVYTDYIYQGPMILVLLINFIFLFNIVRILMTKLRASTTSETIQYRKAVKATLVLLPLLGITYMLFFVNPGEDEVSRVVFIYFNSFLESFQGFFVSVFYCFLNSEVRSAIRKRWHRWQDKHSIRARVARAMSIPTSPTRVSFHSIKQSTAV
Also: assay procedure not described here.

Molecule	AC50 (Progesterone receptor)	AC50 [1]	AC50 (Thromboxane A2 receptor)	AC50 [2]	AC50 [3]	AC50 (Glucagon receptor)	AC50 [4]
THIMEROSAL	> 30 µM	> 50 µM	> 30 µM	–	–	–	–
Clc1ccccc1C(c1ccccc1)(c1ccccc1)n1ccnc1 [CLOTRIMAZOLE]	–	–	–	> 10 µM	–	–	–
CC/C(=C(\c1ccccc1)c1ccc(OCCN(C)C)cc1)c1ccccc1 [TAMOXIFEN]	–	–	–	> 10 µM	–	–	–
COc1cccc(C2(O)CCCCC2CN(C)C)c1 (centres undefined) [TRAMADOL]	–	–	–	–	> 30 µM	> 30 µM	> 30 µM
Cc1c(OCC(F)(F)F)ccnc1C[S+]([O-])c1nc2ccccc2[nH]1 (centres undefined) [LANSOPRAZOLE]	–	> 30 µM	–	–	> 30 µM	> 30 µM	> 30 µM
CO[C@]12C[C@@H](COC(=O)c3cncc(Br)c3)CN(C)[C@@H]1Cc1cn(C)c3cccc2c13 [NICERGOLINE]	> 30 µM	–	> 30 µM	–	–	–	–
